# Target: T1, TRPC6 channel (Homo sapiens, UniProt Q9Y210)
# T1 construct: expressed in transfected cells; host or cells: HEK293
# T1 sequence (Q9Y210 1-931): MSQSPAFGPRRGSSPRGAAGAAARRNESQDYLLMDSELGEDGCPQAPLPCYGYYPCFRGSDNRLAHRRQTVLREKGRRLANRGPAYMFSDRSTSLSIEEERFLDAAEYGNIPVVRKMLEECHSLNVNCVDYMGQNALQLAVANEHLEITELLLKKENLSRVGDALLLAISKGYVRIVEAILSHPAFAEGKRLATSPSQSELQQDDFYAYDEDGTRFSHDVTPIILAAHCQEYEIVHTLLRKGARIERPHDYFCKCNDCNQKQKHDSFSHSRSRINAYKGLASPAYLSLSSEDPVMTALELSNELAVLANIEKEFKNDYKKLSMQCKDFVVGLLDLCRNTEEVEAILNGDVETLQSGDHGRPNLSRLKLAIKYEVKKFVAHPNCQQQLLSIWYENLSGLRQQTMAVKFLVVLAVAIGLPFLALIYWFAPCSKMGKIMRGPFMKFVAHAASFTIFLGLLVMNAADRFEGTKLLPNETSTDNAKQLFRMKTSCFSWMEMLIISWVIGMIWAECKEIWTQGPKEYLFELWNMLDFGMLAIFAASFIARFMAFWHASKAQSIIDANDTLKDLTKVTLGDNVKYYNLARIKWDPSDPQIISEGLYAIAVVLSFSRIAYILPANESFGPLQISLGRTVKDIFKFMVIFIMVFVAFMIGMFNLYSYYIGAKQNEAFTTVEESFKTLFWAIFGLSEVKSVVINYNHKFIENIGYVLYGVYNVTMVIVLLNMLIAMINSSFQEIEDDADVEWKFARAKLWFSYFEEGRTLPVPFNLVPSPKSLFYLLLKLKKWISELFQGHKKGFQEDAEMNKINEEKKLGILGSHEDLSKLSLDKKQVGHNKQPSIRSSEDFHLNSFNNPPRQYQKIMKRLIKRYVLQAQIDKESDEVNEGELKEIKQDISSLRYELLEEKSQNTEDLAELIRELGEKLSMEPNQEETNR
# Test: Calcium assay using HEK293 cells transiently expressing TRPC6 channel, ATP as activating reagent
# Format: cell-based
# Details: 10 μM test compound
# Method: In the same manner as in Test Example 2, the calcium ion concentration was measured, except that 10 μM of Pyr 4 and 10 μM of compound 202(E), 061, or 071 (test compound) were used, and ATP was used as a TRPC channel activating reagent instead of carbachol, thereby determining the amount of increase in calcium ions. FIG. 4 illustrates the results.
row,Compound,"suppression of TRPC6 channel activation (decrease in calcium ion influx, FIG. 4)"
1,"Clc1cccnc1N1CCN(c2noc3cccc(Cl)c23)CC1 [Compound 071, 4-chloro-3-(4-(3-chloropyridin-2-yl)piperazin-1-yl)benzo[d]isoxazole]",activation of the TRPC6 channel was suppressed
2,"Clc1ccccc1N1CCN(c2noc3cccc(Cl)c23)CC1 [Compound 061, 4-chloro-3-(4-(2-chlorophenyl)piperazin-1-yl)benzo[d]isoxazole]",activation of the TRPC6 channel was suppressed
3,"O/N=C(\c1cccc(Cl)c1Cl)N1CCN(c2ccccc2Cl)CC1 [Compound 202(E), (E)-(4-(2-chlorophenyl)piperazin-1-yl)(2,3-dichlorophenyl)methanone oxime]",activation of the TRPC6 channel was suppressed

# Target: T1, TRPC6 channel
# Test: Calcium assay using HEK293 cells transiently expressing TRPC6 channel, carbachol activation (Fura-2)
# Format: cell-based
# Details: 10 μM test compound, carbachol
# Method: A TRPC6 gene was introduced into HEK293 cells (cells derived from human fetal kidney) by lipofection, and the TRPC6 channel was expressed on the cell membrane. Specifically, the plasmid DNA of TRPC6 (pCI-neo; Promega Corporation) was introduced into HEK293 cells using a lipofection reagent, and then cultured at 37° C. for 24 to 48 hours to express the TRPC6 channel on the cell membrane. In the same manner, HEK293 cells into which the TRPC3 gene was introduced were cultured, and the TRPC3 channel was expressed on the cell membrane.
# The cultured cells were peeled off with trypsin and seeded on a cover glass again, followed by culturing the cells at 37° C. for 3 hours again. A Fura-2 AM calcium indicator was added to the medium, and the cells were cultured at 37° C. for 30 minutes to allow the cells to incorporate the indicator. For the extracellular solution, a Ca^2+-containing solution and a Ca^2+-free solution were prepared. • Ca^2+-containing solution: 2 mM CaCl2, 132 mM NaCl, 4 mM KCl, 1 mM MgCl2, 5 mM glucose, 5 mM HEPES (pH 7.4) • Ca^2+-free solution: 132 mM NaCl, 4 mM KCl, 1 mM MgCl2, 5 mM glucose, 5 mM HEPES (pH 7.4)
# After the cells were added to the Ca^2+-containing solution, the following operation was performed while the fluorescence intensity (510 nm) of Fura-2 was measured at room temperature with an ARGUS CA-20 (Hamamatsu Photonics K.K.) over time. • 0 minutes: TRPC3-expressing cells or TRPC6-expressing cells are placed in a measurement chamber that contains the Ca^2+-containing solution. • After 30 seconds: The Ca^2+-containing solution is replaced with the Ca^2+-free solution. • After 1 minute: A predetermined amount of a test compound is added to the Ca^2+-free solution. • After 3 minutes: Carbachol (100 μM) is added to the Ca^2+-free solution. • After 7 minutes: The Ca^2+-free solution is replaced with the Ca^2+-containing solution that contains a test compound and carbachol […]. • After 15 minutes: Measurement is ended.
# Compound 011 was used as the test compound, and the amount of the test compound added was 0.01, 0.1, 0.5, 1.0, 5.0, 10, or 50 μM. For the control, 0.1% DMSO was used in place of the test compound. Carbachol (cch) is a TRPC-channel-activating reagent. Applying carbachol to cells opens the TRPC channel and allows a large amount of Ca^2+ in the extracellular solution to flow into the cells. Fura-2 AM has high cell membrane permeability due to the presence of an AM group (acetoxymethyl group), and is thus easily incorporated into the cells. The AM group is hydrolyzed in the cells to become Fura-2. Thus, Fura-2 can form a chelate with Ca^2+ and is also unlikely to leak out of the cells due to the loss of the AM group.
# In the same manner as in Test Example 1, the maximum calcium ion concentration was measured after 7 minutes from the start of measurement (i.e., after replacement with the Ca^2+-containing solution) by using TRPC6-expressing cells prepared in the same manner as in Test Example 1, except that 10 μM of Pyr 4 and 10 μM of compound 011, 031, 041, or 191 (test compound) were used. The average value of calcium ion concentrations up to 30 seconds after the start of measurement (the initial value of calcium ion concentration) was subtracted from the maximum calcium ion concentration, and the calculated value was determined to be the amount of increase in calcium ions. FIG. 3 illustrates the results.
# The calcium ion concentration was measured in the same manner as in Test Example 2, except that 10 μM of compound 011, 361, 362(E), 362(Z), 371, 372(Z), 381, or 401 (test compound) was used, and Pyr 4 was not used, thereby determining the amount of increase in calcium ions. Table 2 illustrates the amount of increase in calcium ions for each test compound relative to the amount of increase in calcium ions in the control (DMSO) taken as 100%.
row,Compound,"suppression of TRPC6 channel activation (decrease in calcium ion influx, FIG. 3)"
1,"O=C(O)c1cnc(N2CC3CCC(C2)N3c2noc3cccc(C(F)(F)F)c23)c(Cl)c1 [Compound 191, 5-chloro-6-(8-(4-(trifluoromethyl)benzo[d]isoxazol-3-yl)-3,8-diazabicyclo[3,2,1]octan-3-yl)nicotinic acid]",activation of the TRPC6 channel was suppressed
2,"C[C@@H]1CN(c2ncc(C(=O)O)cc2Cl)CCN1c1noc2cccc(C(F)(F)F)c12 [Compound 041, (R)-5-chloro-6-(3-methyl-4-(4-(trifluoromethyl)benzo[d]isoxazol-3-yl)piperazin-1-yl) nicotinic acid]",activation of the TRPC6 channel was suppressed
3,"C[C@H]1CN(c2ncc(C(=O)O)cc2Cl)CCN1c1noc2cccc(C(F)(F)F)c12 [Compound 031, (S)-5-chloro-6-(3-methyl-4-(4-(trifluoromethyl)benzo[d]isoxazol-3-yl)piperazin-1-yl) nicotinic acid]",activation of the TRPC6 channel was suppressed

# Same assay, conditions: 10 μM test compound, carbachol, TRPC6-expressing cells
row,amount of increase in calcium ions relative to control (DMSO) taken as 100%,Compound
1,72%,"FC(F)(F)c1cccc2onc(N3CC=C(c4ccccc4Cl)CC3)c12 [Compound 361, 3-(4-(2-chlorophenyl)-3,6-dihydropyridin-1(2H)-yl)-4-(trifluoromethyl)benzo[d]isoxazole]"
2,54%,"O/N=C(/c1c(F)cccc1C(F)(F)F)N1CC=C(c2ccccc2Cl)CC1 [Compound 362(Z), (Z)-(4-(2-chlorophenyl)-3,6-dihydropyridin-1(2H)-yl)(2-fluoro-6-(trifluoromethyl)phenyl)methanone oxime]"
3,72%,"CCOC(=O)c1cnc(N2CCN(/C(=N\O)c3c(F)cccc3C(F)(F)F)CC2=O)c(Cl)c1 [Compound 372(Z), ethyl (Z)-5-chloro-6-(4-((2-fluoro-6-(trifluoromethyl)phenyl)(hydroxyimino)methyl)-2-oxopiperazin-1-yl)nicotinate]"
4,65%,"O/N=C(\c1c(F)cccc1C(F)(F)F)N1CC=C(c2ccccc2Cl)CC1 [Compound 362(E), E-(4-(2-chlorophenyl)-3,6-dihydropyridin-1(2H)-yl)(2-fluoro-6-(trifluoromethyl)phenyl)methanone oxime]"
5,19%,"O=C(O)c1ccc(C2=CCN(c3noc4cccc(C(F)(F)F)c34)CC2)c(Cl)c1 [Compound 401, 3-chloro-4-(1-(4-(trifluoromethyl)benzo[d]isoxazol-3-yl)-1,2,3,6-tetrahydropyridin-4-yl)benzoic acid]"
6,61%,"CCOC(=O)c1cnc(N2CCN(c3noc4cccc(C(F)(F)F)c34)CC2=O)c(Cl)c1 [Compound 371, ethyl 5-chloro-6-(2-oxo-4-(4-(trifluoromethyl)benzo[d]isoxazol-3-yl)piperazin-1-yl) nicotinate]"
7,57%,"O=C(O)c1cnc(N2CCN(c3noc4cccc(C(F)(F)F)c34)CC2=O)c(Cl)c1 [Compound 381, 5-chloro-6-(2-oxo-4-(4-(trifluoromethyl)benzo[d]isoxazol-3-yl)piperazin-1-yl)nicotinic acid]"

# Tested on: cardiac fibrosis induced by pressure overload
# Test: not given
# Details: mice, NPL 1 and 2; cited from earlier work
row,Compound,suppression of cardiac fibrosis induced by pressure overload
1,CCOC(=O)c1cnn(-c2ccc(NC(=O)C(Cl)=C(Cl)Cl)cc2)c1C(F)(F)F [Pyr3],potently suppresses cardiac fibrosis induced by pressure overload

# Reference: patent US11976062B2, “Benzisoxazole compound” (OSAKA UNIVERSITY, priority 2018, dated 2024)
